# Measurements from patent US8394765B2, “Methods of treating obesity with two different anti-obesity agents” (Amylin Pharmaceuticals LLC, priority 2004, dated 2013).
# Legend:
# [1] = 24-week randomized, double-blind, active-drug-controlled study of pramlintide and metreleptin in overweight and obese subjects (Example 8); type: in vivo, human
# Procedure: To evaluate inter alia the safety, tolerability and effect of the combination of an amylin agonist (pramlintide) and a leptin (metreleptin) on changes in body weight, a 24-week, randomized, double-blind, active-drug-controlled, multicenter study was conducted under USFDA approved protocols. Secondary objectives of the study were the determination of the pharmacokinetics of pramlintide and leptin, waist circumference, rate of change in body weight, and patient reported outcomes including for example without limitation perception of well-being related to weight change and mood. The study enrolled overweight and obese subjects with defined BMI ([…]), with enrollment statistics as provided in Table 2. […] Subjects treated with pramlintide/metreleptin lost an average of 25 pounds from the start of the 24-week study compared with an average of 17 pounds for subjects treated with pramlintide alone.
# In an initial lead-in phase, all subjects received dietary instructions and treatment with pramlintide at 180 mcg BID for two weeks, followed by pramlintide at 360 mcg BID for two weeks. Subjects who completed the 4-week lead-in period and who lost 2-8 percent body weight during this period were eligible to continue the study. The term “enrolled” (Table 2) refers to subjects (N=177) receiving at least one dose of pramlintide during the lead-in period. The term “non-randomized” refers to subjects not continuing in the study past the lead-in period. The term “evaluable” refers to subjects who completed Visit 9 (Week 16) study procedures and adequately complied with the study protocol.
# After the 4-week lead-in period, for the remaining 20 weeks of the study the subjects were randomized in a 2:2:1 ratio to one of three groups with BID treatment of 1) pramlintide 360 mcg/metreleptin 5 mg (“Leptin+Pramlintide”); 2) pramlintide 360 mcg/placebo (“Pramlintide”); or 3) metreleptin 5 mg/placebo (“Leptin”).
# [2] = compared to human amylin; cited from earlier work
# [3] = treated test animals; e.g. provoking marked hyperlactemia followed by hyperglycemia; cited from earlier work
# [4] = DIO rats, amylin and phentermine, body weight and body composition (Example 4); type: in vivo, rat
# Procedure: The combination of amylin and catecholaminergic agonist, phentermine, were also tested for effects on changes in body weight and body composition. Phentermine is classically referred to as a catecholaminergic agonist as it actually hits NA/5-HT receptors. DIO male rats were fattened and divided into four treatment groups, as described above. Each group was implanted with subcutaneous osmotic mini-pumps and/or inserted with an oral gavage, designed to deliver vehicle, phentermine (10 mg/kg/day), amylin (100 μg/kg/day) or phentermine (10 mg/kg/day)+amylin (100 μg/kg/day) for a 14 day period. The mini-pump contained either vehicle (50% DMSO in water) or amylin while the oral gavage administered either sterile water or phentermine. Body weight was recorded daily and body composition was measured prior to and after drug treatment using NMR.
# [5] = DIO rats, amylin and sibutramine, body weight and body composition (Example 4); type: in vivo, rat
# Procedure: Rat amylin was dissolved in 50% DMSO in sterile water and sibutramine was dissolved in sterile water. Each group was implanted with subcutaneous osmotic mini-pumps designed to deliver vehicle, sibutramine (3 mg/kg/day) or amylin (100 μg/kg/day) for a 14 day period. Body weight and food intake were recorded daily. Body composition was measured prior to and after drug treatment using NMR (Echo Medical Systems, Houston, Tex.). For body composition measurements, rats were briefly placed (˜1 min) in a well-ventilated plexiglass tube that was then inserted into a specialized rodent NMR machine. Rats were scanned prior to pump implantation and on the final day of the experiment. This enabled the calculation of changes in actual grams of fat and dry lean tissue (e.g., grams of body fat after treatment−grams of body fat at baseline=change in grams of body fat) and changes in % body composition for fat and dry lean tissue (e.g., % body fat after treatment−% body fat at baseline=change in % body fat).
# [6] = DIO (Levin) rats, amylin and CB-1 antagonist rimonabant, body weight and body composition (Example 5); type: in vivo, rat
# Procedure: These rats were developed by Barry Levin from a line of Crl:CD®(SD)BR rats that are prone to become obese on a diet relatively high in fat and energy. They were housed individually in shoebox cages at 22 C in a 12/12-hour light dark cycle. […] Rats were habituated to oral gavage for 1 week prior to treatment. Rimonabant was administered at a range of doses (0.1, 0.3, 1.0, 3.0. 10 mg/kg/day) by oral gavage. Amylin (dissolved in 50% DMSO sterile water) or vehicle was administered by mini-pump (100 μg/kg/day). Rimonabant was always delivered just prior to lights out. Food intake and body weight were measured at 1 and 2 weeks post-treatment. Body composition was measured prior to and after drug treatment using NMR (Echo Medical Systems, Houston, Tex.). For body composition measurements, rats were briefly placed (˜1 min) in a well-ventilated plexiglass tube that was then inserted into a specialized rodent NMR machine. Rats were scanned prior to pump implantation and on the final day of the experiment. This enabled the calculation of changes in actual grams of fat and dry lean tissue (e.g., grams of body fat after treatment−grams of body fat at baseline=change in grams of body fat) and changes in % body composition for fat and dry lean tissue (e.g., % body fat after treatment−% body fat at baseline=change in % body fat).
# [7] = DIO rats, amylin and exendin-4 analog, body weight and body composition (Example 6); type: in vivo, rat
# Procedure: […]. Prior to drug administration rats had typically attained a mean body weight of 500 g Exendin-4 analog was administered by minipump at a range of doses (0.3, 1, 3, 10, 30 μg/kg/day). Amylin (dissolved in 50% DMSO in water) or vehicle was administered by mini-pump (100 μg/kg/day). Body weight and food intake was recorded daily. Body composition was measured prior to and after drug treatment using NMR (Echo Medical Systems, Houston, Tex.). For body composition measurements, rats were briefly placed (˜1 min) in a well-ventilated plexiglass tube that was then inserted into a specialized rodent NMR machine. Rats were scanned prior to pump implantation and on the final day of the experiment. This enabled the calculation of changes in actual grams of fat and dry lean tissue (e.g., grams of body fat after treatment−grams of body fat at baseline=change in grams of body fat) and changes in % body composition for fat and dry lean tissue (e.g., % body fat after treatment−% body fat at baseline=change in % body fat).
# [8] = DIO rats, amylin and PYY(3-36), body weight and body composition (Example 7); type: in vivo, rat
# Procedure: Each group was implanted with subcutaneous osmotic mini-pumps, designed to deliver vehicle, PYY(3-36) (1000 μg/kg/day), amylin (100 μg/kg/day) or PYY(3-36) (1000 μg/kg/day)+amylin (100 μg/kg/day) for a 14 day period. PYY(3-36) was administered by mini-pump at a range of doses (100, 200, 400, 800, 1000 μg/kg/day). Amylin 100 μg/kg/day (dissolved in 50% DMSO sterile water), PYY(3-36) (dissolved in 50% DMSO sterile water) or vehicle was administered by mini-pump. Food intake and body weight was recorded daily. Body composition was measured prior to and after drug treatment using NMR (Echo Medical Systems, Houston, Tex.). For body composition measurements, rats were briefly placed (˜1 min) in a well-ventilated plexiglass tube that was then inserted into a specialized rodent NMR machine. Rats were scanned prior to pump implantation and on the final day of the experiment. This enabled the calculation of changes in actual grams of fat and dry lean tissue (e.g., grams of body fat after treatment−grams of body fat at baseline […]) and changes in % body composition for fat and dry lean tissue (e.g., % body fat after treatment−% body fat at baseline=change in % body fat).
# [9] = 4-week pramlintide lead-in, arm of later randomization
compound,measurement,setting,value
CC[C@H](C)[C@H](NC(=O)[C@@H]1CCCN1C(=O)CNC(=O)[C@H](Cc1ccccc1)NC(=O)[C@H](CC(N)=O)NC(=O)[C@H](CC(N)=O)NC(=O)[C@H](CO)NC(=O)[C@H](CO)NC(=O)[C@H](Cc1c[nH]cn1)NC(=O)[C@@H](NC(=O)[C@H](CC(C)C)NC(=O)[C@H](Cc1ccccc1)NC(=O)[C@H](CC(N)=O)NC(=O)[C@H](C)NC(=O)[C@H](CC(C)C)NC(=O)[C@H](CCCNC(=N)N)NC(=O)[C@H](CCC(N)=O)NC(=O)[C@@H](NC(=O)[C@H](C)NC(=O)[C@@H]1CSSC[C@H](NC(=O)[C@@H](N)CCCCN)C(=O)N[C@@H](CC(N)=O)C(=O)N[C@@H]([C@@H](C)O)C(=O)N[C@@H](C)C(=O)N[C@@H]([C@@H](C)O)C(=O)N1)[C@@H](C)O)C(C)C)C(=O)N[C@@H](CC(C)C)C(=O)N1CCC[C@H]1C(=O)N1CCC[C@H]1C(=O)N[C@H](C(=O)N[C@@H](CC(N)=O)C(=O)N[C@H](C(=O)NCC(=O)N[C@@H](CO)C(=O)N[C@@H](CC(N)=O)C(=O)N[C@H](C(=O)N[C@@H](Cc1ccc(O)cc1)C(N)=O)[C@@H](C)O)C(C)C)[C@@H](C)O [pramlintide],"rate of change in body weight, early rate","[1]; 0-12 weeks, evaluable population, FIG. 24",−0.23±0.04 kg/week
same,Mean Change in Body Weight,"[1]; 4-week lead-in period in which all subjects received pramlintide (180 then 360 mcg BID), arm of later randomization",-3.65 kg
same,% Weight Loss During Lead-in <5% (share of subjects),[1]; [9],77%
same,% Weight Loss During Lead-in ≧5% (share of subjects),[1]; [9],23%
same,"rate of change in body weight, late rate","[1]; 12-20 weeks, evaluable population, FIG. 24",−0.02±0.04 kg/week
same,"weight reduction effect toward the end of the study (late rate, in words)","[1]; 12-20 weeks, FIG. 24",approached a late rate of zero
same,course of weight loss towards the end of the study,"[1]; human subjects, 24-week study",weight had stabilized towards the end of the 24-week study
same,body weight reduction on average,"[1]; human subjects, end of 24-week study, pramlintide 360 mcg BID, metreleptin 5 mg BID, p<0.001",8.4%
same,average weight lost from the start of the 24-week study,"[1]; human subjects, pramlintide 360 mcg BID, metreleptin 5 mg BID",17 pounds
"^25Pro^26Val^28,29 Pro-h-amylin (KCNTATCATQRLANFLVHSSNNFGPVLPPTNVGSNTY)",solubility and stability characteristics,[2],more desirable solubility and stability characteristics
^28Pro-h-amylin (KCNTATCATQRLANFLVHSSNNFGAILPSTNVGSNTY),amylin activity in vivo,[3],show amylin activity in vivo
CC(C)(N)Cc1ccccc1 [phentermine],changes in body fat (fat mass),"[4]; after two weeks, FIG. 11B",modest amount of fat mass loss
same,changes in body protein (lean mass),"[4]; after two weeks, FIG. 11C",unchanged or tended to be lost
same,vehicle-corrected decrease in percent body weight,"[4]; two weeks, phentermine 10 mg/kg/day oral gavage, amylin 100 μg/kg/day, FIG. 11A",~5%
des-^1Lys-h-amylin (CNTATCATQRLANFLVHSSNNFGAILSSTNVGSNTY),amylin activity in vivo,[3],show amylin activity in vivo
metreleptin,"weight reduction effect toward the end of the study (late rate, in words)","[1]; 12-20 weeks, FIG. 24",approached a late rate of zero
CC(C)CC(N(C)C)C1(c2ccc(Cl)cc2)CCC1 (stereo not drawn) [sibutramine],changes in body fat (fat mass),"[5]; after two weeks, FIG. 10B",Fat mass loss was evident
same,changes in body protein (lean mass),"[5]; after two weeks, FIG. 10C",relatively unchanged
same,vehicle-corrected decrease in percent body weight,"[5]; two weeks, sibutramine 3 mg/kg/day, amylin 100 μg/kg/day, FIG. 10A",~6%
"^18Arg^25,28Pro-h-amylin (KCNTATCATQRLANFLVRSSNNFGPILPSTNVGSNTY)",amylin activity in vivo,[3],show amylin activity in vivo
same,solubility and stability characteristics,[2],more desirable solubility and stability characteristics
"des-^1Lys^18Arg^25,28Pro-h-amylin (CNTATCATQRLANFLVHRSNNFGPILPSTNVGSNTY)",amylin activity in vivo,[3],show amylin activity in vivo
Cc1c(C(=O)NN2CCCCC2)nn(-c2ccc(Cl)cc2Cl)c1-c1ccc(Cl)cc1 [rimonabant],changes in body fat (fat mass),"[6]; after two weeks, FIG. 12B",Fat mass loss was evident
same,changes in body protein (lean mass),"[6]; after two weeks, FIG. 12C",relatively equivalent increase in lean (protein) mass
same,vehicle-corrected decrease in percent body weight,"[6]; two weeks, rimonabant 3 mg/kg/day oral gavage, amylin 100 μg/kg/day, FIG. 12A",~4%
^14Leu-exendin-4 [Exendin-4 analog],changes in body fat (fat mass),"[7]; after two weeks, FIG. 15B",Fat mass loss was evident
same,changes in body protein (lean mass),"[7]; after two weeks, FIG. 15C",relatively equivalent increase in lean (protein) mass
same,vehicle-corrected decrease in percent body weight,"[7]; two weeks, exendin-4 analog 10 μg/kg/day, amylin 100 μg/kg/day, FIG. 15A",~6%
PYY(3-36),changes in body fat (fat mass loss),"[8]; after two weeks, order PYY(3-36) alone, amylin alone, combination, FIG. 16B",Increasing amount of fat mass loss
same,vehicle-corrected decrease in percent body weight,"[8]; two weeks, PYY(3-36) 1000 μg/kg/day, amylin 100 μg/kg/day, FIG. 16A",~9%
